Key:
[1] = molecular target: T1, human GnRHR1 (Homo sapiens, UniProt P30968); assay: Inhibitory effect for the change of calcium levels in GnRH-stimulated cells (hGnRHR1#1 HEK293 cells); type: cell-based; conditions: HEK293 cells stably expressing human GnRHR1; 10 nM GnRH added; FLIPR Calcium Assay Kit; read-out: IC50 (drug concentration at which 50% GnRH-stimulated intracellular calcium flux was inhibited)
T1 construct: expressed in transfected cells
T1 sequence (P30968 1-328): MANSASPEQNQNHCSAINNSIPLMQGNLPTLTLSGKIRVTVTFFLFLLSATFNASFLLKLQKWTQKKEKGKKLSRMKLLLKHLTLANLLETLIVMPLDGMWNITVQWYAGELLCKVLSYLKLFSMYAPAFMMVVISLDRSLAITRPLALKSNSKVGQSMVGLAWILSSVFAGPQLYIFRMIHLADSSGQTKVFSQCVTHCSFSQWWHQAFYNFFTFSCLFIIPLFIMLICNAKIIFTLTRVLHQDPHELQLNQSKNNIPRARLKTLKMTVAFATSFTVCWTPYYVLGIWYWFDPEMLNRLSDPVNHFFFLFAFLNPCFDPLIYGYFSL
Description: 1) Cloning and Construction of the Vector Expressing Human GnRH Receptor1 (GnRHR1)
Using cDNA derived from human pituitary (BECTON DICKINSON) as a template, the DNA fragment coding 45 to 1115 by of human GnRHR1 (Accession No. L03380), which was reported by Kakar et al., was amplified by PCR method and inserted into the multi-cloning site of pcDNA3.1(+) (Invitrogen). The DNA sequence inserted was perfectly matched to the previously reported sequence.
2) Establishment of Cell Line Stably Expressing Human GnRH Receptor1 HEK293 Cells
The expression vector of human GnRHR1 gene, was digested by XhoI into a linear DNA. The linear DNA was transfected into HEK293 cells by means of lipofection (Lipofectamine2000: Invitrogen). Neomycin resistant cell lines were selected by culture in the medium containing G418 (Invitrogen) at 1 mg/mL, and then the change of calcium levels in GnRH-stimulated cells was measured by the method described below.
3) Assay of Inhibitory Effect for the Change of Calcium Levels in GnRH-Stimulated Cells
Antagonizing effect of compounds for human GnRHR1 was evaluated by depression of calcium levels in GnRH-stimulated cells. hGnRHR1#1 cells were seeded into a 96-well culture plate at a density of 1.5×10^5 cells/well and cultured for a day. […] Then, intracellular calcium levels were determined under the following condition by using FLEX STATION (Molecular Devices). […]

[2] = Assay for oral absorbability: plasma drug concentration after oral administration; type: in vivo; conditions: overnight fasted male SD rats, 3 mg/kg
Experimental: Assay for Oral Absorbability
1) Preparation of the Samples for Measurement of the Drug Concentration After Oral Administration
As experimental animal, overnight fasted SD rats (Charles River, male, 7 weeks of age, 170-210 g) were used. Three mg of a test compound was dissolved by adding 0.2 mL of N,N-dimethylacetoamide, 9.794 mL of 0.5% aqueous methylcellulose solution and 0.006 mL of 2N NaOH, and then 0.3 mg/mL solution was prepared. The body weights of rats were measured, and the solution of the test compound was administered orally at the dose of 10 mL/kg (3 mg/kg). The oral administration was performed with gastric tube for rat and 2.5 mL syringe. The sampling times for collection of blood were 15, 30, 60, 120, 240 and 360 minutes after the oral administration. The blood was centrifuged, and the plasma was used as the sample for measurement of the drug concentration in blood.
2) Measurement of the Drug Concentration
To 0.025 mL of the plasma obtained in 1) described above, 0.1 mL of an adequate internal standard material was added according to the usual method, and then deproteinization was performed by adding 0.875 mL of acetonitrile. After centrifugation, 0.005 mL of the supernatant was injected into LC-MS/MS. The drug concentration in plasma was measured by LC-MS/MS method under the conditions as follows. […]

IC50 [1]: 91 nM
C360 (plasma drug concentration at 360 minutes after administration) ([2]; 360 minutes): 490 ng/mL
Cmax ([2]; rat, read-out: Cmax (maximum plasma drug concentration)): 2380 ng/mL
SMILES: COC(=O)N(C)CCOc1ccc(F)c(F)c1COc1ccc(F)c(-n2c(=O)[nH]c3csc(C(=O)O)c3c2=O)c1 [Example 8]

— patent publication US20100130514A1, “FUSED HETEROCYCLIC DERIVATIVE, PHARMACEUTICAL COMPOSITION COMPRISING THE DERIVATIVE, AND USE OF THE COMPOSITION FOR MEDICAL PURPOSES” (Kissei Pharmaceutical Co., Ltd., priority 2007, published 2010)
